From patent publication US12384775B2, “Pyrimid-2-yl-pyrazole compounds as IRAK inhibitors” (Rigel Pharmaceuticals, Inc., priority 2022, dated 2025) come the findings set out here.

Structures can show the parent of a compound that is named as a salt. Where two headings read alike, the source gives them in different places.

The subject of one data set is IL23p19 in THP-1 Cells. In words: LPS induced IL23p19 in THP-1 cells (IFNγ primed), ELISA. The data set is classed as cell-based. Particulars: Homo sapiens, THP-1 cells IFNγ primed, LPS 1 μg/mL, 18 h, read-out: IL23-p19 ELISA, THP1-IFNy, LPS, 10 pt EC50. As for the experimental part: On day 1, 50K/well THP-1 cells were seeded and primed with IFNγ (50 ng/mL) in 384-well plates for about 18 hours in RPMI media with 10% FBS. On day 2, the compound was serially diluted in DMSO from 5 mM in 3-fold dilutions, and then diluted 1:125 in RPMI media with 10% FBS. 50 μL/well 2× compound was added to 50 μL/well THP-1 cells (with IFNγ primed) in duplicate in 384 well tissue culture plates. The cells were pre-incubated with compound for 1 hour at 37° C., 5% CO2 before addition of 10 μL/well 11×LPS to give a final concentration of 1 μg/mL LPS. Day 3, after stimulation for 18 hours at 37° C., 5% CO2, the assay plate was centrifuged and 70 μL/well supernatant was harvested. IL-23p19 protein in 70 μL/well of supernatant was measured by sandwich ELISA, and 25 μl/well Cell Titer Glo reagent was added to the remaining cells to measure compound toxicity.
Maxisorp immuno ELISA plates were pre-coated with 25 μL/well of anti-IL-23p19 capture antibody (2.5 ug/mL) in PBS overnight at room temperature. After washing with 1×PBST, the plates were blocked using 100 μL/well of 1% BSA in PBS for 2 hours at room temperature. The plates were washed three times with 1×PBST and 70 μL/well supernatant were added. The plates were incubated at room temperature for 2 hours with shaking and washed three times with 1×PBST. 25 μL/well of biotin labeled anti-IL-12 (p40/p70) detection antibody (100 ng/mL) in PBS with 1% BSA was added and the plates were incubated at room temperature for 2 hours with shaking. After washing three times with 1× PBST, 25 μL/well of streptavidin-HRP (1:200) in PBS with 1% BSA was added and the plates were incubated at room temperature for 20 minutes with shaking. The plates were washed three times with 1× PBST and 25 μL/well of Super Signal ELISA Pico Chemiluminescent Substrate were added. The plates were read with a luminometer, and the chemiluminescence values were entered into Athena (Rigel) for curve fitting, EC50 calculation, and database storage.
THP-1 cells (100K in 100 μL/well) were primed with 25 ng/mL IFN-γ for 18 hours at 37° C., 5% CO2. Compound was serially diluted in DMSO from 2.5 mM in 4-fold dilutions, and then diluted 1:125 in RPMI 1640 complete media with 10% FBS. 100 μL/well 2× compound was mixed with the 100 μL/well IFN-7 primed THP-1 in 96 well flat-bottom white tissue culture plates. The cells were pre-incubated with compound for 1 hour at 37° C., 5% CO2 and before addition of 10 μL/well 21×LPS to give a final concentration of […] for LPS. The cells were stimulated with LPS for 18 hours at 37° C., 5% CO2. After centrifugation, 100 μL/well supernatant was extracted by using a multichannel pipette. IL-23p19 or TNF-α protein in the supernatant were measured by sandwich ELISA. The remaining IFN-7 primed THP-1 cell pellets were used to perform cell viability assays to determine compound cell toxicity. The plates were read with a luminometer, and the chemiluminescence values were entered into Athena (Rigel) for curve fitting, EC50 calculation, and database storage.
Maxisorp immuno ELISA plates were pre-coated with 100 μL/well of anti-IL-23p19 capture antibody (2.4 μg/mL) in PBS overnight at room temperature. After washing with 1×PBST, the plates were blocked using 300 μL/well of 1% BSA in PBS for 2 hours at room temperature. The plates were washed three times with 1×PBST and 100 μL/well supernatant was added. The plates were incubated at room temperature for 2 hours with shaking. The plates were washed three times with 1×PBST and 100 μL/well of biotin anti-human IL-12 (p40/70) detection antibody (10 ng/mL) in PBS with 0.1% BSA were added. The plates were incubated at room temperature for 2 hours with shaking. The plates were washed three times with 1×PBST and 100 μL/well streptavidin-HRP (1:200) in PBS with 0.1% BSA was added. The plates were incubated at room temperature for 20 minutes with shaking. […]

In another data set the target is IRAK1 (Homo sapiens, UniProt P51617). In words: IRAK1 ADP-Glo kinase assay. The class given is biochemical. The conditions noted are these: read-out: IRAK1 ADP-Glo Kinase, 8 pt EC50.
Sequence of IRAK1 (P51617 whole entry): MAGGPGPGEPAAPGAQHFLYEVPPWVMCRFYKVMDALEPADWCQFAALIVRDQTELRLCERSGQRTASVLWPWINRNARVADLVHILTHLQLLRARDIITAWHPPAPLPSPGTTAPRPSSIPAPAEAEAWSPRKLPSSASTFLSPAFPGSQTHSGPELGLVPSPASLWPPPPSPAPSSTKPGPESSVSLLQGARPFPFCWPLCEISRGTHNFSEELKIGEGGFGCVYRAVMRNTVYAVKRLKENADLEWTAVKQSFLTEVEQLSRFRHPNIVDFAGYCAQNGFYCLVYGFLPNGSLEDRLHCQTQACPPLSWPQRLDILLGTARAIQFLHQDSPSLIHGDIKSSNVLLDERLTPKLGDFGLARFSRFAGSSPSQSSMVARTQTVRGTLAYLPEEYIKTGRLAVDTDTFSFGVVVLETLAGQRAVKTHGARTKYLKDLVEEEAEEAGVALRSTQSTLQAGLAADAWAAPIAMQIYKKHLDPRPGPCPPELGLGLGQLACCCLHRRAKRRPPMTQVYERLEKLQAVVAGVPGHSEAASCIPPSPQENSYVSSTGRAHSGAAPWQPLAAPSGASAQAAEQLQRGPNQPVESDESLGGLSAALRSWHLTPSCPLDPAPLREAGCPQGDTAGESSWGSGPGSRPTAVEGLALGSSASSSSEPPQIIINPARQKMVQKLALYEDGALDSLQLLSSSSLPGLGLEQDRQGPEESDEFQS
For a further data set, the target named is T1, IRAK4 (Homo sapiens, UniProt Q9NWZ3).
T1 construct: purchased Signalchem I12-10G-20
T1 sequence (Q9NWZ3 1-460): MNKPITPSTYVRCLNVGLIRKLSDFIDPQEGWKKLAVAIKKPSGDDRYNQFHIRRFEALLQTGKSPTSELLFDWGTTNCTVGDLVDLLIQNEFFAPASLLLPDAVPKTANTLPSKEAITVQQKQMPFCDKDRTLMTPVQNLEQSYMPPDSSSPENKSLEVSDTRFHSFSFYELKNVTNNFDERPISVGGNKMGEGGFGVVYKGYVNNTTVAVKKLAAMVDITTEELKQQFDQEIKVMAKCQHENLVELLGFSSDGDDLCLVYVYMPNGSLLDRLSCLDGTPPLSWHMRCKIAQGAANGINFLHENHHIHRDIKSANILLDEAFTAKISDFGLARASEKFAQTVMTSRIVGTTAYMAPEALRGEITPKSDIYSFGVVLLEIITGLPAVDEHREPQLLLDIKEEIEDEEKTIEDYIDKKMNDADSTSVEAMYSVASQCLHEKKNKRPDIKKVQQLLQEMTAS
In words: IRAK4 ADP-Glo kinase assay. The class given is biochemical. The conditions noted are these: read-out: IRAK4 ADP-Glo Kinase, 8 pt EC50. The method, then:
The ADP-Glo™ reagents were thawed at ambient temperature. The Kinase Detection Reagent was prepared by mixing kinase detection buffer with the lyophilized kinase detection substrate, and set aside.
A stock volume of 5× Reaction Kinase Buffer was made with a final concentration of 100 mM MgCl2, 200 mM Tris-HCl, and 0.5 mg/ml of BSA, in distilled H2O with a final pH7.4. A 2× working stock volume of Reaction Kinase Buffer was made containing a final concentration of 100 μM DTT.
The components of IRAK4 Enzyme were thawed on ice. Diluted IRAK4 in 1× Kinase Reaction Buffer (diluted from 2× buffer) was prepared at […]. A 250 μM working stock ATP Assay Solution was prepared in 1× Kinase Reaction Buffer (diluted from 2× buffer).
The compound was diluted in DMSO from 250 µM in 4-fold series dilutions for 8 points. Then diluted 1:5 in 2× Reaction Buffer in a 96 well plate. 1.0 μl was transferred to a 384 well plate in duplicate. […] 1 μl of 1 mg/ml stock solution of MBP substrate was added NOTE: MBP can be combined with ATP mix with equal volume and then added at 2 μl/well. Final reaction volume was 5 μl. The plate was centrifuged and the reaction mixture was incubated at room temperature for 60 minutes or at 30° C. for 30 minutes.
The reaction was terminated and the remaining ATP was depleted by adding 5 μl of ADP-Glo™ Reagent. The 384-well plate was centrifuged and then the reaction mixture was incubated for another 40 minutes at ambient temperature.
10 μl of the Kinase Detection Reagent was added. The plate was centrifuged and then the reaction mixture was incubated for another 30 minutes at ambient temperature.
The 384-well reaction plate was read using the WALLAC plate reader (Luminescence 0.1s).

Data set [1] is described as follows: Bioavailability of prodrug I-3, dog. The data set is classed as in vivo. Particulars: measured as amount of parent compound I-1 detected.
The nature of data set [2]: Bioavailability of prodrug I-3, rat. The class given is in vivo. The conditions noted are these: measured as amount of parent compound I-1 detected.
Data set [3] can be described thus: Bioavailability of prodrug I-3, mouse. Particulars: measured as amount of parent compound I-1 detected. The data set is classed as in vivo.
A short description of data set [4]: Bioavailability of prodrug I-3, monkey. The data set is classed as in vivo. The conditions noted are these: measured as amount of parent compound I-1 detected.

As for `CCO[C@H]1CC[C@H](n2cc(NC(=O)c3csc(-c4cn[nH]c4)n3)c(-c3ncccn3)n2)CC1` [Compound I-4, N-(1-((1r,4r)-4-ethoxycyclohexyl)-3-(pyrimidin-2-yl)-1H-pyrazol-4-yl)-2-(1H-pyrazol-4-yl)thiazole-4-carboxamide tartaric acid salt], the half-maximal effective concentration (EC50) with IL23p19 in THP-1 Cells (THP-1, 18 h) is 2.5 nM; on IRAK1, 28.1 nM; on IRAK4, 18.8 nM.

With `CCO[C@H]1CC[C@H](n2cc(NC(=O)c3csc(-c4cnn(COP(=O)(O)O)c4)n3)c(-c3ncccn3)n2)CC1` [Compound I-2, (4-(4-((1-((1r,4r)-4-ethoxycyclohexyl)-3-(pyrimidin-2-yl)-1H-pyrazol-4-yl)carbamoyl)thiazol-2-yl)-1H-pyrazol-1-yl)methyl dihydrogen phosphate], the EC50 in the data set with IL23p19 in THP-1 Cells worked out at 11 nM; on IRAK1, 3910 nM; at IRAK4, 46.4 nM.

With `CCO[C@H]1CC[C@H](n2cc(NC(=O)c3csc(-c4cnn(COP(=O)(O)O)c4)n3)c(-c3ncccn3)n2)CC1` [Compound I-3, sodium (4-(4-((1-((1r,4r)-4-ethoxycyclohexyl)-3-(pyrimidin-2-yl)-1H-pyrazol-4-yl)carbamoyl)thiazol-2-yl)-1H-pyrazol-1-yl)methyl phosphate], the EC50 in the data set with IL23p19 in THP-1 Cells (THP-1, 18 h) is 54.4 nM; at IRAK1, 61.8 nM; on IRAK4, 128 nM. Besides, the “Bioavailability (% F) of Compound I-3” value in data set [1] is listed as 53 % F; in data set [2], 12 % F; in data set [3], 34 % F; in data set [4], 71 % F.
